According to ChEMBL document CHEMBL2203242, “A regio- and stereoselective 1,3-dipolar cycloaddition for the synthesis of new-fangled dispiropyrrolothiazoles as antimycobacterial agents” (Bioorg Med Chem Lett, 2012):
Converted amounts (≈) assume the structure as drawn.

Test system: Mycobacterium tuberculosis
Experiment: Antimycobacterial activity against isoniazid-resistant Mycobacterium tuberculosis by agar dilution method
Assay type: functional

Compound | MIC90
COc1cc2c(cc1OC)C(=O)[C@]1(C2)[C@@H](c2ccccc2)[C@@H]2CSCN2[C@@]12C(=O)Nc1ccc(OC(F)(F)F)cc12 | > 6.25 µM
COc1cc2c(cc1OC)C(=O)[C@]1(C2)[C@@H](c2ccccc2Cl)[C@@H]2CSCN2[C@@]12C(=O)Nc1ccc(OC(F)(F)F)cc12 | 36.4 µM (≈ 22.5 µg/mL)
COc1cc2c(cc1OC)C(=O)[C@]1(C2)[C@@H](c2ccc(F)cc2)[C@@H]2CSCN2[C@@]12C(=O)N(N1CCOCC1)c1ccccc12 | 35.1 µM (≈ 21.1 µg/mL)
COc1ccc([C@H]2[C@@H]3CSCN3[C@@]3(C(=O)N(N4CCOCC4)c4ccccc43)[C@@]23Cc2cc(OC)c(OC)cc2C3=O)cc1OC | 24.2 µM (≈ 15.6 µg/mL)
COc1cc2c(cc1OC)C(=O)[C@]1(C2)[C@@H](c2ccccc2)[C@@H]2CSCN2[C@@]12C(=O)N(N1CCOCC1)c1ccccc12 | > 6.25 µM
COc1cc2c(cc1OC)C(=O)[C@]1(C2)[C@@H](c2ccccc2Cl)[C@@H]2CSCN2[C@@]12C(=O)N(N1CCOCC1)c1ccccc12 | 18.3 µM (≈ 11.3 µg/mL)
COc1cc2c(cc1OC)C(=O)[C@]1(C2)[C@@H](c2ccc(F)cc2)[C@@H]2CSCN2[C@@]12C(=O)Nc1ccc(OC(F)(F)F)cc12 | 16.6 µM (≈ 9.99 µg/mL)
COc1ccc([C@H]2[C@@H]3CSCN3[C@@]3(C(=O)Nc4ccc(OC(F)(F)F)cc43)[C@@]23Cc2cc(OC)c(OC)cc2C3=O)cc1OC | 22.2 µM (≈ 14.3 µg/mL)
NNC(=O)c1ccncc1 [ISONIAZID] | 11.2 µM (≈ 1.54 µg/mL)
